Patent US20240358693A1, “METHODS OF TREATING PAIN” (Aisa Pharma, Inc., priority 2023, published 2024)

System: participants with SSc-RP
Experiment: Scleroderma Health Assessment Questionnaire (SHAQ): disability indices and visual analog scales
Assay type: in vivo, human
Settings: minus = improvement, two weeks of treatment
Text: The standard, validated, patient reported outcome measures tool for SSc patients, the Scleroderma Health Assessment Questionnaire (SHAQ), will be used to assess the participant qualify of life. Details are attached in the Appendix. The participant quality of life will be scored, and a disability index calculated for each questionnaire completed by the patient at Screening and each in-clinic visit. The absolute change in participant quality of life from baseline to the end of each dosing period will be calculated similar to frequency data as before.
The SHAQ includes a Raynaud's VAS, which will be reported at screening and each in-clinic visit. The absolute change in Raynaud-VAS, assessed by the participants response to the SHAQ question ‘In the past 7 days, how much have your Raynaud's interfered with your daily activities?’ at baseline and the end of each dosing period will be calculated similar to frequency data as before.
The SHAQ is used to calculate a Disability Index to assess the participant qualify of life. The eight categories assessed by the Disability Index are 1) dressing and grooming, 2) arising, 3) eating, 4) walking, 5) hygiene, 6) reach, 7) grip, and 8) common daily activities. For each of these categories, patients report the amount of difficulty they have in performing two or three specific activities.
There are four possible responses for the Disability Index questions: • Without any difficulty=0 • With some difficulty=1 • With much difficulty=2 • Unable to do=3. • The highest score reported by the patient for any component question of the eight categories determines the score for that category. • If a component question is left blank or the response is too ambiguous to assign a score, then the score for that category is determined by the remaining completed question(s). • If all component questions are blank or if more than one answer is given, then follow up with the respondent is required. • If the respondent's mark is between the response columns, then move it to the closest one. If it's directly between the two, move it to the higher one.
Each of the disability items on the SHAQ has a companion aids/devices variable that is used to record what type(s) of assistance, if any, the participant uses for his/her usual activities. These variables (see below) are coded as follows: • 0=No assistance is needed. • 1=A special device is used by the patient in his/her usual activities. • 2=The patient usually needs help from another person. • 3=The patient usually needs BOTH a special device AND help from another person.
The scoring variables and scoring rules permit the computation of two disability indices, the Standard Disability Index and the Alternative Disability Index.
This question results in a new set of category scores that are computed by adjusting the score for each category, if necessary, based on the patient's use of an aid or device or assistance for that category. If either devices and/or help from another person are checked for a category, the score is set to “2”, unless the score is already “3” (i.e., scores of “0” or “1” are increased to “2”). For example, if the highest score for the dressing category is “1”, and the patient says they use a device for dressing, the computed category score would be “2”. The sum of the computed categories scores is then calculated and divided by the number of categories answered. This gives a score in the 0 to 3 range.
The aid and device variables are not used to calculate the alternative disability index; it is calculated by adding the scores for each of the categories and dividing by the number of categories answered. This gives a score in the 0 to 3 range.
The standard, validated, patient reported outcome measures tool for SSc patients, the SHAQ, was collected at the time points specified in the study schedules (FIG. 2 and FIGS. 4A and 4B) to assess the participant's quality of life. The SHAQ included a Raynaud's VAS that will also be reported separately.

[1] = Cilnidipine 20 mg n = 3, with Tadalafil 5 mg n = 4

In the case of `COCCOC(=O)C1=C(C)NC(C)=C(C(=O)OC/C=C/c2ccccc2)C1c1cccc([N+](=O)[O-])c1` (centres unmarked) [Cilnidipine 20 mg], the “SHAQ Alternative Disability Index, mean % change” value [1] is reported as −42%, the “SHAQ Breathing Difficulty, mean % change” value [1] is reported as −73% and the “SHAQ Burden of Fingers Ulcers, mean % change” value [1] is reported as −17%. For the same compound, the “SHAQ Overall Scleroderma, mean % change” value [1] was −63%, the “SHAQ Pain, mean % change” value [1] was −53% and the “SHAQ Raynaud’s Difficulty, mean % change” value [1] was −49%. The “SHAQ Standard Disability Index, mean % change” value [1] was −50% and the “SHAQ Intestinal Difficulty, mean % change (pooled, n = 7)” value (pooled, n = 7) was −45% (pooled,.
